Like-named read-outs stand apart in the source and are kept apart here.
Tests used:
hERG channel = hERG channel (Homo sapiens (Human), UniProt Q12809); assay: hERG manual patch clamp test; assay type: cell-based
Method: The cells used in this test were the HEK293 cell line transfected with hERG cDNA and stably expressing the hERG channel (#60187, supplied by BPS, passages P3-P23 for experimental studies). The cells were cultured in a medium containing the following components: MEM medium containing 10% (v/v) inactivated fetal calf serum, 1 mM sodium pyruvate, 500 μg/ml geneticin, 0.1 mM non-essential amino acids, and 100 U/m1 penicillin/streptomycin. HEK293 hERG cells were grown in a culture dish containing the above-mentioned medium, cultured in a 37° C., 5% CO2 incubator, and passaged approximately three times per week, with the cell fusion rate between 40% and 80%. 24 to 48 hours prior to electrophysiological experiments, HEK293 hERG cells were transferred to 0.05 mg/ml PDL-pretreated slides, seeded at a density of 1×10^4 cells per well in a 48-well plate, and grown in the same medium and under the same culture conditions. The density of HEK293 hERG cells on each circular slide needs to reach the requirement that most cells are independent and individual. The extracellular fluid components used in the hERG assay were as follows (mM): 145 NaCl, 4 KCl, 2 CaCl2, 1 MgCl2, 10 glucose, and 10 HEPES (pH adjusted to 7.40 with NaOH). The intracellular fluid components were as follows (mM): 130 KCl, 2 MgCl2, 5 EGTA, 10 HEPES and 5 Na2ATP (pH adjusted to 7.25 with KOH). […] Prior to the experiment, the compound was first serially diluted with DMSO to prepare stock solutions at 10, 3, 1, 0.3, and 0.1 mM, which were then further diluted with extracellular fluid to achieve the final test concentrations (in μM). The final concentration of DMSO in compound solutions at various concentrations was between 0.1% and 0.3%. All compound solutions are routinely sonicated for 5 to 10 min and shaken sufficiently to ensure complete dissolution of the compound, and all test solutions are mixed well by rotation for at least 10 min.
Electrophysiological tests were performed using a manual patch clamp system (HEKA EPC-10 signal amplifier and digital conversion system, HEKA Electronics, Germany) for the recording of whole cell currents. The specific test method was described as follows: Circular slides with […] hERG cells growing on the surface were placed in an electrophysiological recording chamber under an inverted microscope. The recording chamber was continuously perfused with extracellular fluid (at approximately 1 mL/min). The conventional whole-cell patch-clamp technique was employed for current recordings throughout the experiment. If not specified, the experiments were carried out at normal room temperature (about 25° C.). The cells were clamped at −80 mV. The cell clamp voltage was depolarized to +30 mV to activate the hERG potassium channel, and then clamped to −50 mV after 5 seconds to eliminate inactivation and produce a tail current. The peak tail current value was used as a value for the magnitude of the hERG current. The potassium current of hERG recorded in the above steps was stabilized by continuous extracellular fluid perfusion in the recording chamber, and the drug to be tested was continuously perfused until the inhibitory effect of the drug on hERG currents had stabilized. The coincidence of the most recent three consecutive current recording traces was typically taken as the criteria for determining whether steady-state conditions were achieved.
Dose-response curves of the test compounds were plotted with % hERG inhibition rate as the y-axis and test compound concentration as the x-axis, to calculate the IC50 values.

OVCAR3 tumor = assay: OVCAR3 human ovarian cancer subcutaneous transplant tumor model; assay type: in vivo, mouse; conditions: oral, QD, 28 days, balb/c nude mice
From the text: • I. Experimental objective: evaluation of the pharmacological effects of the reference compounds and the compounds of the present disclosure in the OVCAR3 human ovarian cancer subcutaneous transplant tumor model. • II. Experimental material: experimental female balb/c nude mice, 6-8-week old or 18-20 g, provided by Vital River Laboratory Animal Technology Co., Ltd. • III. Experimental method: Experimental animals were housed within a specific pathogen-free animal barrier facility, and the experiment was started 3 days after the animals were acclimated. The human ovarian cancer OVCAR3 tumor cells were cultured in vitro as monolayers in RPMI 1640 complete medium (supplemented with a final concentration of 20% fetal bovine serum, 1% penicillin-streptomycin dual antibiotics, and 0.01 mg/ml insulin) at 37° C. in an atmosphere containing 5% CO2. The tumor cells were routinely passaged 2-3 times per week, and the cells in the exponential growth phase were collected and counted for tumor cell inoculation. 10×10^6 OVCAR3 tumor cells were resuspended in 0.1 m1 PBS and mixed with 0.1 m1 matrigel and then subcutaneously inoculated into the right flank of each mouse to establish tumors. When the mean tumor volume of the tumor-bearing mice grew to around 100 mm^3, the appropriate tumor-bearing mice were selected for randomization and the groups were set as: blank control groups, reference compound groups, and groups of compounds of the present disclosure. Vehicles were administered orally in the blank control group, and the corresponding compounds were administered orally in the other groups for 28 days. Tumor volumes and animal weights were monitored […], twice weekly. This experiment examined the inhibitory effect of the reference compound and the compound of the present disclosure on the growth of OVCAR3 human ovarian cancer cells by monitoring the size of the tumor volume of each group after administration of the compounds.

[1] = HEK293 cells stably expressing hERG, whole-cell patch clamp, read-out: hERG IC50

Chain of hERG channel (Q12809 whole entry, the tested form may be a part): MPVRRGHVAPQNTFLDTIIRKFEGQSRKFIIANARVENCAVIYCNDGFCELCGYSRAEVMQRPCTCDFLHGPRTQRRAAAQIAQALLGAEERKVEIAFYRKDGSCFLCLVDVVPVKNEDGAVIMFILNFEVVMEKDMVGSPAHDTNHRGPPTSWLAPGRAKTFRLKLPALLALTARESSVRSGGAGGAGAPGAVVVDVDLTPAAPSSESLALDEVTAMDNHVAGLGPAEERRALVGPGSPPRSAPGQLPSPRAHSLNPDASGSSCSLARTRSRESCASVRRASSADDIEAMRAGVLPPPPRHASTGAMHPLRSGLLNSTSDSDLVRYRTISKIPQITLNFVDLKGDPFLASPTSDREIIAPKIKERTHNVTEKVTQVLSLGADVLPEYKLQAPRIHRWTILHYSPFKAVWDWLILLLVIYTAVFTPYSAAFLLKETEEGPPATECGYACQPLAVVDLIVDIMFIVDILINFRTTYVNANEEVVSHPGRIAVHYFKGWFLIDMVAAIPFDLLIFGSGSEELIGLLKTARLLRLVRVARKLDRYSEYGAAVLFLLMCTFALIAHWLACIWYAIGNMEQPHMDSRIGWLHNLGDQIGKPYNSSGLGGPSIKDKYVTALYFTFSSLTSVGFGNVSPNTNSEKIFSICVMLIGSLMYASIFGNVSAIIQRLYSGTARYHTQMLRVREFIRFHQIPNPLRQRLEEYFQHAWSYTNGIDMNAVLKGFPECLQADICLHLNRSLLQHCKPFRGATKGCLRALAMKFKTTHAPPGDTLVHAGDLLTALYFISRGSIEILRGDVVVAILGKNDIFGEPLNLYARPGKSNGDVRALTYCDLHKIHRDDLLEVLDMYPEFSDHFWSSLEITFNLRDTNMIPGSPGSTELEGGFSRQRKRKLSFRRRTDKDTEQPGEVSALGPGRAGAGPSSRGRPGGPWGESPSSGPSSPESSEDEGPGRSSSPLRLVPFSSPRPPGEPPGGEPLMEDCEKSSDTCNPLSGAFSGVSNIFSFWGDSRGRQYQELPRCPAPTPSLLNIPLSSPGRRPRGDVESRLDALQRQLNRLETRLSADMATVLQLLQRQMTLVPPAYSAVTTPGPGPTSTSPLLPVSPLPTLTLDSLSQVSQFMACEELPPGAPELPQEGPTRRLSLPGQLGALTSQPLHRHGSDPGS

Row | SMILES | IC50 (hERG channel; [1]) [µM] | inhibition rate on OVCAR3 tumor growth (OVCAR3 tumor; 10 mg/kg) | inhibition rate on OVCAR3 tumor growth (OVCAR3 tumor; 30 mg/kg) | IC50 (hERG channel) [µM]
1 | O=C(Nc1cccc2c1cc1n2CCOC1)c1ccc(NS(=O)(=O)CCO)cc1N1CCC2(CC1)CC2 [Example 235, N-(3,4-dihydro-1H-[1, 4]oxazino[4,3-a]indol-9-yl)-4-(2-hydroxyethylsulfonamido)-2-(6-azaspiro[2.5]octan-6-yl)benzamide] | 9.84 | – | – | –
2 | O=C(Nc1cccc2c1cc1n2CCOC1)c1ccc(NS(=O)(=O)CCO)cc1N1CCC(=C(F)F)CC1 [Example 319, 2-(4-difluoromethylene)piperidin-1-yl-N-(3,4-dihydro-1H-[1,4]oxazino[4,3-a]indol-9-yl)-4-((2-hydroxyethyl)sulfonamide) benzamide] | > 10 | – | – | –
3 | CC1(C)Cn2c(cc3c(NC(=O)c4ccc(NS(=O)(=O)CCO)cc4N4CCC(=C(F)F)CC4)cccc32)CO1 [Example 370, 2-(4-(difluoromethylene)piperidin-1-yl)-N-(3,3-dimethyl-3,4-dihydro-1H-[1,4]oxazino[4,3-a]indol-9-yl)-4-((2-hydroxyethyl)sulfonamido)benzamide] | > 10 | – | – | –
4 | CC1(C)Cn2c(cc3c(NC(=O)c4ccc(NS(=O)(=O)CCO)cc4N4CCC5(CC4)CC5)cccc32)CO1 [Example 371, N-(3,3-dimethyl-3,4-dihydro-1H-[1,4]oxazino[4,3-a]indol-9-yl)-4-(2-hydroxyethylsulfonamido)-2-(6-azaspiro[2.5]octan-6-yl)benzamide] | > 10 | 94%-98% | about 110% | –
5 | COc1ccc(NC(=O)c2ccc(NS(=O)(=O)CCO)cc2N2CCC3(CC2)CC3)c2cc3n(c12)CC(C)(C)OC3 [Example 455, 4-((2-hydroxyethyl)sulfonamido)-N-(6-methoxy-3,3-dimethyl-3,4-dihydro-1H-[1,4]oxazinyl[4,3-a]indol-9-yl)-2-(6-azaspiro[2.5]oct-6-yl)benzamide] | – | 94%-98% | – | > 10
6 | COc1ccc(NC(=O)c2ccc(NS(=O)(=O)CCO)cc2N2CCC(=C(F)F)CC2)c2cc3n(c12)CC(C)(C)OC3 [Example 465, 2-(4-(difluoromethylene)piperidin-1-yl)-4-((2-hydroxyethyl)sulfonamido)-N-(6-methoxy-3,3-dimethyl-3,4-dihydro-1H-[1,4]oxazinyl[4,3-a]indol-9-yl)benzamide] | > 10 | 60%-70% | – | –
7 | CC1(C)Cn2c(cc3c(NC(=O)c4ccc(NS(=O)(=O)CCO)cc4N4CCC5(CC4)CC5)ccc(OC(F)F)c32)CO1 [Example 523] | > 10 | – | – | –

From patent US20260070887A1 (Shenzhen Zhongge Biological Technology Co., Ltd., priority 2022, published 2026)
